“And” between values parts separate entries of the source, which are not always exact repeats. Equal entries are not always repeated.
What was measured:
HIV-1 Ba-L strain = assay: HIV challenge of stable Ghost3 (Ghost3+CXCR4+CCR5) cells, P24 assay; format: cell-based
Procedure: Ghost 3+CXCR4+CCR5 cells, HIV NL4-3 and Ba-L strains were obtained from the NIH AIDS Reagent Program. Ghost cells and HEK293 cells (ATCC CRL-1573) were grown on DMEM supplemented with 10% FBS and 1 mM Glutamine. CCRF-CEM (ATCC CRM-CCL-119) cells were grown in RPMI supplemented with 10% FBS and 1 mM Glutamine. HEK293 and Ghost cells were transfected with Lipofectamine 2000 according to the manufacturer's protocol (ThermoFisher, Waltham, Mass., USA). To generate stable HEK293 cell lines, 2 million cells were transfected with pJR255-based plasmids that express aptamers alone, shLuc, or shLuc-aptamer fusions. Transfected cells were selected with G418 (Gold Biotechnology, St. Louis, Mo., USA) for 10 to 14 days, followed by Fluorescent Activated Cell Sorting (FACS) to isolated mCherry positive cells. Typically, the brightest 10 to 30% of cells were collected. Second FACS was performed 7 to 10 days after the first sort to isolate stable cell populations. […] Ghost cells were already G418 resistant, therefore, no selection step was performed. 0.5M cells were transfected with pJR255 based plasmids that express shLuc, aptamer alone or shLuc-aptamer fusions. Transfected cells were sorted 7 days after transfection. Compared to HEK293 cells, the percentage of mCherry positive cells was much lower because no drug selection was applied. Typically, the brightest 5 to 10% of cells were collected. A second sort was performed 14 days later. If a decrease in mCherry signal was observed, a third sort was performed.
(§1) For the lentivirus challenge, 5×10^4 HEK293 cells stably expressing the aptamer alone, the shRNA alone or the shRNA-aptamer fusions were transduced with HIV7-GFP lentivirus particles at an MOI of 0.3 in 500 μl cell culture medium. Cells were harvested 10 days post-transduction and analyzed by FACS. For an initial HIV challenge, 5×10^4 Ghost(3)X4/R5 cells stably expressing shRNA alone or shRNA-aptamer fusions were infected with HIV-1 Ba-L strain at an MOI of 0.02 in 500 μl medium. The HIV concentration of cells in culture was determined using a P24 assay with an Alliance HIV-1 P24 ELISA kit. (PerkinElmer, Waltham, Mass., USA). For a long term HIV challenge, 1×10^5 CCRF-CEM cells stably expressing shRNA or shRNA-aptamer fusions were infected with HIV-1 NL4-3 viruses at MOI of 0.02 in 500 μl medium. […]
To test if the shRNA-fusions can exert inhibition during subsequent infection cycles using replication competent HIV, stable Ghost3+CXCR4+CCR5 cell lines expressing the shLuc alone and the shLuc-S1R1, shLuc-S3R1 and shLuc-53R3 fusions were generated (abbreviated as Ghost3 cells in following text) (Morner, et al., 1999). […] The HIV concentration in cultures was monitored by P24 assay for 9 days.

HIV = settings: 10% FBS cell culture; cited from earlier work
HIV7-GFP lentivirus = assay: Single cycle lentivirus HIV7-GFP challenge of stable HEK293 cells, FACS; format: cell-based, HIV; settings: aptamer alone expressed directly from U6 promoter, HEK293, MOI 0.3, FACS 10 days after transduction
From the text: A direct functional assay was used to test the inhibitory effect of the aptamer candidates for combinational gene therapy in T cells or hematopoietic stem cells (HSC). To this end, plasmids (pJR255) consisting of: 1) a U6 promoter for inducing the expression of the aptamers, 2) a G418 resistant cassette for selection, and 3) an mCherry marker for cell purification and functional analysis were generated. (FIG. 11). RNAs expressed from U6 (pol III) promoter lack nucleus export signals and stay in the nucleus (18,19,20,21). Integrase functions primarily in the nucleus. […] Each population of cells was transduced with lentiHIV particles at an MOI of 0.3. The transduced cells were analyzed by FACS 10 days after transduction to minimize the effects of GFP from nonintegrated viral DNA. If an aptamer exerts any inhibition of HIV integrase, the percentage of GFP and mCherry double-positive cells should be reduced compared to the control.
For the lentivirus challenge, 5×10^4 HEK293 cells stably expressing the aptamer alone, the shRNA alone or the shRNA-aptamer fusions were transduced with HIV7-GFP lentivirus particles at an MOI of 0.3 in 500 μl cell culture medium. Cells were harvested 10 days post-transduction and analyzed by FACS. […] The HIV concentration of cells in culture was determined using a P24 assay with an Alliance HIV-1 P24 ELISA kit. […]

[1] = molecular target: T1, HIS tagged HIV-1 Integrase (HIS-IN) (Human immunodeficiency virus type 1 group M subtype B, UniProt P12497, C1427S/F1332K); format: binding
T1 construct: HIS tagged HIV-1 Integrase (HIS-IN) expression vector; made in house; host or cells: E. coli strain C3016
Procedure: The gel mobility shift assay was carried out as described (Zhou, et al, 2009). RNA aptamers were transcribed from annealed oligonucleotide pairs (Table 1) containing T7 promoter sequences using Megashortscript T7 transcription kit (Thermofisher Scientific, Waltham, Mass., USA). Percentage binding was determined by Image J (http://imagej.nih.gov/ij/index.html). ^32P labeled and folded aptamers (final concentration of 2 nM) were incubated with HIS-IN protein (final concentration of 0, 20, 40, 80, 160 and 320 nM) at 37° C. for 30 min. The complexes were then separated by 5% native polyacrylamide gel. Autoradiographs were acquired via Typhoon phosphorimaging system (GE Healtcare Life Science, Pittsburgh Pa. 15264, USA). Digital images were imported and analyzed by ImageJ software (http://imagej.nih.gov/ij/index.html). 50 percent binding values were determined by the Prism 6 software (GraphPad Software Inc) using non-linear curve regression. Northern analysis of total or fractionated RNAs was carried out as described (Castanott, et al., 2009) using probes listed in primer list (Table 1). Quantification of relative band intensity was measured and calculated using Image J software.

firefly luciferase = assay: Luciferase assay in HEK293 clone stably expressing firefly luciferase; format: cell-based; settings: U6 driven shLuc or shLuc-aptamer fusion, Day 2 or Day 3 after transfection
Procedure: A HEK293 cell clone stably expressing firefly luciferase was transfected with the plasmids expressing the shLuc or the shLuc-aptamer fusions. Cells were harvested two or three days post-transfection and their firefly luciferase activities were determined by the Luciferase Assay System (Promega, Madison, Wis., USA).
Using a luciferase assay, export of the shRNA-aptamer fusion into the cytoplasm was tested. […] (FIG. 4B). […] Northern blot analyses on fractionated samples were performed to further assess the distribution and processing of the shLuc-aptamer fusion.

HIV-1 NL4-3 = assay: Long term HIV challenge of stable CCRF-CEM cells, p24 assay; format: cell-based; settings: pNL4-3 MOI 0.01, monitored six weeks
Procedure: To generate stable CCRF-CEM cell lines, 2 million cells were transfected with […]-based plasmids, that express shLuc, shLuc-S1R1, shLuc-S3R1 and shLuc-S3R3, by electroporation using the Nucleofactor kit according to the manufacturer's protocol (Lonza, Basel, Switzerland). G418 selection and FACS were performed similar to that of HEK293 cells.
as §1, with “USA).” for “USA). For a long term HIV challenge, 1×10^5 CCRF-CEM cells stably expressing shRNA or shRNA-aptamer fusions were infected with HIV-1 NL4-3 viruses at MOI of 0.02 in 500 μl medium.”
The long-term efficacy of shRNA-aptamer fusions in CD4 positive T cells was tested using CEM cells stably expressing shLuc, shLuc-S3R3, shS1 or shS1-S3R3. […] HIV concentrations were monitored for six weeks by p24 assay (FIG. 8). […] In summary, anti-integrase aptamer expressed as an shRNA-aptamer fusion can confer long term resistance to HIV-1 replication in T cells. […]

[2] = Human immunodeficiency virus 1, BAL, 216 h, read-out: inhibition of HIV replication

Cc1nnc(C(=O)NC(C)(C)c2nc(C(=O)NCc3ccc(F)cc3)c(O)c(=O)n2C)o1 [Raltegravir, reference compound]
inhibition at 0.002 µM (HIV-1 Ba-L strain; [2]): 96%
inhibition at 0.02 µM (HIV-1 Ba-L strain; [2]): > 99%
IC50 (HIV): 2 nM
IC95 (HIV): 20 nM

S3R3: anti-HIV integrase RNA aptamer; variable region CGTCGTATGCTGCGCCATGGGGTGGACTG (SEQ ID NO:5) (variable region only, further chemistry not given here)
HIV inhibition, in words (HIV-1 Ba-L strain; Ba-L, Ghost3 cells, p24 monitored for 9 days): weaker than a low dose of Raltegravir
inhibition of HIV-7GFP integration (HIV7-GFP lentivirus): did not inhibit
Kd ([1]; 2 nM 32P labeled aptamer, HIS-IN 0-320 nM, 37° C. 30 min, read-out: binding affinity to HIS-IN (50 percent binding value)): 47 nM
binding affinity to HIS-IN compared to S1R1 ([1]; gel shift): higher binding affinity

B1: S3R1: anti-HIV integrase RNA aptamer, oligos JRO502/JRO503 (SEQ ID NO: 15, 16) (nucleic acid)
DNA 1: CACCGCGGGCCCTAGACGCGCTGCCGTGGAGGAGGAGGTTGGTGGCGCGAGAGGTG
DNA 2: AAAACACCTCTCGCGCCACCAACCTCCTCCTCCACGGCAGCGCGTCTAGGGCCCGC
modifications: listed as DNA, chemistry not fully specified; the letters are possibly those of the target site
inhibition of HIV-7GFP integration (HIV7-GFP lentivirus): did not inhibit

B2: shLuc: U6 promoter driven shRNA targeting luciferase with an artificial 10 bases loop (nucleic acid)
chain 1: CACCGCTTACGCTGAGTACTTCGAAATTGAAGCTTGTTTCGAAGTACTCAGCGTAAG
chain 2: AAAACTTACGCTGAGTACTTCGAAACAAGCTTCAATTTCGAAGTACTCAGCGTAAGC
modifications: the letters are possibly those of the target site
notes: U6 promoter driven shRNA targeting luciferase with an artificial 10 bases loop
inhibition of luciferase activity (firefly luciferase): slightly stronger

B3: shLuc-S3R3: shLuc-aptamer fusion with integrase aptamer S3R3 (SEQ ID NO: 23, 24) (nucleic acid)
DNA 1: CACCGCTTACGCTGAGTACTTCGAAACAAGGAGGACGATGCGGGCCGTCGTATGCTGCGCCATGGGGTGGACTGGGTGGCGCGAAGTTCGAAGTACTCAGCGTAAG
DNA 2: AAAACTTACGCTGAGTACTTCGAACTTCGCGCCACCCAGTCCACCCCATGGCGCAGCATACGACGGCCCGCATCGTCCTCCTTGTTTCGAAGTACTCAGCGTAAGC
modifications: expressed or natural sequence; the letters are possibly those of the target site
inhibition of HIV replication (relative P24 concentration compared to shLuc control) (HIV-1 Ba-L strain; Ghost3 cells expressing shRNA or shRNA-aptamer fusion, Ba-L MOI 0.02, Day 9): ~85% and 78%
viral concentration (p24) relative to control (shLuc) (HIV-1 NL4-3): more than three orders of magnitude lower
